Laboratory results as given in patent US12723063B2, “GIPR-agonist compounds” (Eli Lilly and Company, priority 2019, dated 2026).
*1 amine or outer side, *2 acyl side, *3 side chain or, on linkers, in order; H or OH if unused. Where a SMILES comes first, the peptide text is derived from it. Side-chain parts run from the residue outwards. [ ]: non-standard residue; d: D form. The star is where a group is joined. C20 diacid = O=C(O)CCCCCCCCCCCCCCCCCCC(=O)*; αMePhe(2-F) = C[C@](N)(Cc1ccccc1F)C(=O)O; γGlu = O=C(O)[C@H](CCC(=O)[*:2])N[*:1]; 4Pal = N[C@@H](Cc1ccncc1)C(=O)O; αMeL = CC(C)C[C@](C)(N)C(=O)O; Orn = NCCC[C@H](N)C(=O)O; AEEA = NCCOCCOCC(=O)O; Aib = CC(C)(N)C(=O)O

Tests used:
human GcgR = molecular target: T1, human GcgR (Homo sapiens, UniProt P47871); experiment: [125I]-Glucagon binding, SPA with WGA beads, 0.1% bacitracin; details: geometric mean, read-out: hGcgR Ki
T1 construct: expressed in transfected cells; crude membranes
T1 sequence (P47871 26-477): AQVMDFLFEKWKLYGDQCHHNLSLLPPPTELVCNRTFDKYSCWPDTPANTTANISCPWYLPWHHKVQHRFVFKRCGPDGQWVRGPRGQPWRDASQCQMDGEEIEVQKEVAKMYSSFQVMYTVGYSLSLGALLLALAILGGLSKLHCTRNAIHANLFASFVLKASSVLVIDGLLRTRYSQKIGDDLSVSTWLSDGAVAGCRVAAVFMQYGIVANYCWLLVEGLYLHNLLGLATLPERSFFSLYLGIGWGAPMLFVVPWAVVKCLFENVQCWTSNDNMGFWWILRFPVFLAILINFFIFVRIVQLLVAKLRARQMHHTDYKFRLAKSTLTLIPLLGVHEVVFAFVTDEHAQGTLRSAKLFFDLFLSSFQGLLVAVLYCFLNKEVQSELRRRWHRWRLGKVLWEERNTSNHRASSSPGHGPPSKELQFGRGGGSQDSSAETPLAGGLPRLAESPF
In short: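 SPA competition binding with WGA beads on crude membranes from HEK293 cells stably expressing hGcgR. Buffer: 25 mM HEPES pH 7.4, 2.5 mM CaCl2, 1 mM MgCl2, 0.1% bacitracin, 0.003% Tween-20; 10-point 3-fold dilutions, NSB with 1 μM Gcg.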

[1] = molecular target: T2, human GLP-1 receptor (GLP-1R) (Homo sapiens, UniProt P43220); experiment: cAMP functional assay (HTRF) in HEK293 cells in presence of 0.1% casein; assay type: cell-based; details: HEK293 cells expressing human GLP-1R, geometric mean, read-out: hGLP1R cAMP Rel EC50 nM (SEM, n)
T2 construct: expressed in transfected cells; host or cells: HEK293
T2 sequence (P43220 24-463): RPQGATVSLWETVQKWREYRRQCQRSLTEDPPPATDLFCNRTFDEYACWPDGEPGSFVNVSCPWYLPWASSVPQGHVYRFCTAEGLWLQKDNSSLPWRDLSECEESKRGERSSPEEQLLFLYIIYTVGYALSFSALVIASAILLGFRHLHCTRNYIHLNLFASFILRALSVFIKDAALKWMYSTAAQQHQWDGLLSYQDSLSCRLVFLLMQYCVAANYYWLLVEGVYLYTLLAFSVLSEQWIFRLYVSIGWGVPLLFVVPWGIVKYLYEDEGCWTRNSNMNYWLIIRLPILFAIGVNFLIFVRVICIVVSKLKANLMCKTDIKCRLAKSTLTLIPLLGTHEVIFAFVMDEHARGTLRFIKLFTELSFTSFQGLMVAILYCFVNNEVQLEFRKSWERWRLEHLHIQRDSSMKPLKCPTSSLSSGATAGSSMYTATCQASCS

Compound	Ki (human GcgR)	EC50 [1]
CC[C@H](C)[C@H](NC(=O)[C@H](CO)NC(=O)[C@H](Cc1ccc(O)cc1)NC(=O)[C@H](CC(=O)O)NC(=O)[C@H](CO)NC(=O)[C@@H](NC(=O)[C@](C)(Cc1ccccc1F)NC(=O)[C@@H](NC(=O)CNC(=O)[C@H](CCC(=O)O)NC(=O)C(C)(C)NC(=O)[C@@H](N)Cc1ccc(O)cc1)[C@@H](C)O)[C@@H](C)CC)C(=O)N[C@@H](C)C(=O)N[C@@H](CC(C)C)C(=O)N[C@@H](CC(=O)O)C(=O)N[C@@H](CCCCN)C(=O)N[C@H](C(=O)N[C@@H](Cc1c[nH]cn1)C(=O)N[C@@H](CCC(N)=O)C(=O)NC(C)(C)C(=O)N[C@@H](CC(=O)O)C(=O)N[C@@H](Cc1ccccc1)C(=O)N[C@H](C(=O)N[C@@H](CCC(=O)O)C(=O)N[C@@H](Cc1ccncc1)C(=O)N[C@@H](CCCCNC(=O)COCCOCCNC(=O)COCCOCCNC(=O)CC[C@H](NC(=O)CCCCCCCCCCCCCCCCCCC(=O)O)C(=O)O)C(=O)N[C@@H](CC(C)C)C(=O)N[C@@H](CCC(=O)O)C(=O)NCC(=O)NCC(=O)N1CCC[C@H]1C(=O)N[C@@H](CO)C(=O)N[C@@H](CO)C(=O)NCC(=O)N[C@@H](C)C(=O)N1CCC[C@H]1C(=O)N1CCC[C@H]1C(=O)N1CCC[C@H]1C(=O)N[C@@H](CO)C(N)=O)C(C)C)[C@@H](C)CC [Example 112] (H-Y[Aib]EGT[αMePhe(2-F)]ISDYSIALDKIHQ[Aib]DFVE[4Pal]K([AEEA-AEEA-γGlu-C20 diacid])LEGGPSSGAPPPS-NH2)	257 nM	> 5000 nM
CC[C@H](C)[C@H](NC(=O)[C@H](CO)NC(=O)[C@H](Cc1ccc(O)cc1)NC(=O)[C@H](CC(=O)O)NC(=O)[C@H](CO)NC(=O)[C@@H](NC(=O)[C@](C)(Cc1ccccc1F)NC(=O)[C@@H](NC(=O)CNC(=O)[C@H](CCC(=O)O)NC(=O)C(C)(C)NC(=O)[C@@H](N)Cc1ccc(O)cc1)[C@@H](C)O)[C@@H](C)CC)C(=O)N[C@@H](C)C(=O)N[C@@H](CC(C)C)C(=O)N[C@@H](CC(=O)O)C(=O)N[C@@H](CCCCN)C(=O)N[C@H](C(=O)N[C@@H](Cc1c[nH]cn1)C(=O)N[C@@H](CCC(N)=O)C(=O)NC(C)(C)C(=O)N[C@@H](CC(=O)O)C(=O)N[C@@H](Cc1ccccc1)C(=O)N[C@H](C(=O)N[C@@H](CCC(=O)O)C(=O)N[C@@H](Cc1ccncc1)C(=O)N[C@@H](CCCCNC(=O)COCCOCCNC(=O)COCCOCCNC(=O)CC[C@H](NC(=O)CCCCCCCCCCCCCCCCCCC(=O)O)C(=O)O)C(=O)N[C@@H](CC(C)C)C(=O)N[C@@H](CCC(=O)O)C(=O)N[C@@H](C)C(=O)NCC(=O)N1CCC[C@H]1C(=O)N[C@@H](CO)C(=O)N[C@@H](CO)C(=O)NCC(=O)N[C@@H](C)C(=O)N1CCC[C@H]1C(=O)N1CCC[C@H]1C(=O)N1CCC[C@H]1C(=O)N[C@@H](CO)C(N)=O)C(C)C)[C@@H](C)CC [Example 113] (H-Y[Aib]EGT[αMePhe(2-F)]ISDYSIALDKIHQ[Aib]DFVE[4Pal]K([AEEA-AEEA-γGlu-C20 diacid])LEAGPSSGAPPPS-NH2)	821 nM	> 5000 nM
CC[C@H](C)[C@H](NC(=O)[C@H](CO)NC(=O)[C@H](Cc1ccc(O)cc1)NC(=O)[C@H](CC(=O)O)NC(=O)[C@H](CO)NC(=O)[C@@H](NC(=O)[C@](C)(Cc1ccccc1F)NC(=O)[C@@H](NC(=O)CNC(=O)[C@H](CCC(=O)O)NC(=O)C(C)(C)NC(=O)[C@@H](N)Cc1ccc(O)cc1)[C@@H](C)O)[C@@H](C)CC)C(=O)N[C@@H](C)C(=O)N[C@@H](CC(C)C)C(=O)N[C@@H](CC(=O)O)C(=O)N[C@@H](CCCCN)C(=O)N[C@H](C(=O)N[C@@H](Cc1c[nH]cn1)C(=O)N[C@@H](CCC(N)=O)C(=O)NC(C)(C)C(=O)N[C@@H](CC(=O)O)C(=O)N[C@@H](Cc1ccccc1)C(=O)N[C@H](C(=O)N[C@@H](CCC(=O)O)C(=O)N[C@@H](Cc1ccncc1)C(=O)N[C@@H](CCCCNC(=O)COCCOCCNC(=O)COCCOCCNC(=O)CC[C@H](NC(=O)CCCCCCCCCCCCCCCCCCC(=O)O)C(=O)O)C(=O)N[C@@H](CC(C)C)C(=O)N[C@@H](CCC(=O)O)C(=O)N[C@@H](CCC(N)=O)C(=O)NCC(=O)N1CCC[C@H]1C(=O)N[C@@H](CO)C(=O)N[C@@H](CO)C(=O)NCC(=O)N[C@@H](C)C(=O)N1CCC[C@H]1C(=O)N1CCC[C@H]1C(=O)N1CCC[C@H]1C(=O)N[C@@H](CO)C(N)=O)C(C)C)[C@@H](C)CC [Example 114] (H-Y[Aib]EGT[αMePhe(2-F)]ISDYSIALDKIHQ[Aib]DFVE[4Pal]K([AEEA-AEEA-γGlu-C20 diacid])LEQGPSSGAPPPS-NH2)	> 971 nM	> 5000 nM
CC[C@H](C)[C@H](NC(=O)[C@H](CCCCN)NC(=O)[C@H](CC(=O)O)NC(=O)[C@H](CC(C)C)NC(=O)[C@](C)(CC(C)C)NC(=O)[C@@H](NC(=O)[C@H](CO)NC(=O)[C@H](Cc1ccc(O)cc1)NC(=O)[C@H](CC(=O)O)NC(=O)[C@H](CO)NC(=O)[C@@H](NC(=O)[C@H](Cc1ccccc1)NC(=O)[C@@H](NC(=O)CNC(=O)[C@H](CCC(=O)O)NC(=O)C(C)(C)NC(=O)[C@@H](N)Cc1ccc(O)cc1)[C@@H](C)O)[C@@H](C)CC)[C@@H](C)CC)C(=O)N[C@@H](CCCNC(=N)N)C(=O)N[C@@H](CCC(N)=O)C(=O)NC(C)(C)C(=O)N[C@@H](CC(=O)O)C(=O)N[C@@H](Cc1ccccc1)C(=O)N[C@H](C(=O)N[C@@H](CCC(=O)O)C(=O)N[C@@H](Cc1ccc(O)cc1)C(=O)N[C@@H](CCCCNC(=O)COCCOCCNC(=O)COCCOCCNC(=O)CC[C@H](NC(=O)CCCCCCCCCCCCCCCCCCC(=O)O)C(=O)O)C(=O)N[C@@H](CC(C)C)C(=O)N[C@@H](CCC(=O)O)C(=O)NCC(=O)NCC(=O)N1CCC[C@H]1C(=O)N[C@@H](CO)C(=O)N[C@@H](CO)C(=O)NCC(=O)N[C@@H](C)C(=O)N1CCC[C@H]1C(=O)N1CCC[C@H]1C(=O)N1CCC[C@H]1C(=O)N[C@@H](CO)C(N)=O)C(C)C [Example 115] (H-Y[Aib]EGTFISDYSI[αMeL]LDKIRQ[Aib]DFVEYK([AEEA-AEEA-γGlu-C20 diacid])LEGGPSSGAPPPS-NH2)	373 nM	> 5000 nM
CC[C@H](C)[C@H](NC(=O)[C@H](CCCN)NC(=O)[C@H](CC(=O)O)NC(=O)[C@H](CC(C)C)NC(=O)[C@](C)(CC(C)C)NC(=O)[C@@H](NC(=O)[C@H](CO)NC(=O)[C@H](Cc1ccc(O)cc1)NC(=O)[C@H](CC(=O)O)NC(=O)[C@H](CO)NC(=O)[C@@H](NC(=O)[C@H](Cc1ccccc1)NC(=O)[C@@H](NC(=O)CNC(=O)[C@H](CCC(=O)O)NC(=O)C(C)(C)NC(=O)[C@@H](N)Cc1ccc(O)cc1)[C@@H](C)O)[C@@H](C)CC)[C@@H](C)CC)C(=O)N[C@@H](CCCNC(=N)N)C(=O)N[C@@H](CCC(N)=O)C(=O)NC(C)(C)C(=O)N[C@@H](CC(=O)O)C(=O)N[C@@H](Cc1ccccc1)C(=O)N[C@H](C(=O)N[C@@H](CCC(=O)O)C(=O)N[C@@H](Cc1ccc(O)cc1)C(=O)N[C@@H](CCCCNC(=O)COCCOCCNC(=O)COCCOCCNC(=O)CC[C@H](NC(=O)CCCCCCCCCCCCCCCCCCC(=O)O)C(=O)O)C(=O)N[C@@H](CC(C)C)C(=O)N[C@@H](CCC(=O)O)C(=O)NCC(=O)NCC(=O)N1CCC[C@H]1C(=O)N[C@@H](CO)C(=O)N[C@@H](CO)C(=O)NCC(=O)N[C@@H](C)C(=O)N1CCC[C@H]1C(=O)N1CCC[C@H]1C(=O)N1CCC[C@H]1C(=O)N[C@@H](CO)C(N)=O)C(C)C [Example 116] (H-Y[Aib]EGTFISDYSI[αMeL]LD[Orn]IRQ[Aib]DFVEYK([AEEA-AEEA-γGlu-C20 diacid])LEGGPSSGAPPPS-NH2)	178 nM	> 5000 nM
CC[C@H](C)[C@H](NC(=O)[C@H](CCCCN)NC(=O)[C@H](CC(=O)O)NC(=O)[C@H](CC(C)C)NC(=O)[C@](C)(CC(C)C)NC(=O)[C@@H](NC(=O)[C@H](CO)NC(=O)[C@H](Cc1ccc(O)cc1)NC(=O)[C@H](CC(=O)O)NC(=O)[C@H](CO)NC(=O)[C@@H](NC(=O)[C@H](Cc1ccccc1)NC(=O)[C@@H](NC(=O)CNC(=O)[C@H](CCC(=O)O)NC(=O)C(C)(C)NC(=O)[C@@H](N)Cc1ccc(O)cc1)[C@@H](C)O)[C@@H](C)CC)[C@@H](C)CC)C(=O)N[C@@H](Cc1c[nH]cn1)C(=O)N[C@@H](CCC(N)=O)C(=O)NC(C)(C)C(=O)N[C@@H](CC(=O)O)C(=O)N[C@@H](Cc1ccccc1)C(=O)N[C@H](C(=O)N[C@@H](CCC(=O)O)C(=O)N[C@@H](Cc1ccc(O)cc1)C(=O)N[C@@H](CCCCNC(=O)COCCOCCNC(=O)COCCOCCNC(=O)CC[C@H](NC(=O)CCCCCCCCCCCCCCCCCCC(=O)O)C(=O)O)C(=O)N[C@@H](CC(C)C)C(=O)N[C@@H](CCC(=O)O)C(=O)N[C@@H](C)C(=O)NCC(=O)N1CCC[C@H]1C(=O)N[C@@H](CO)C(=O)N[C@@H](CO)C(=O)NCC(=O)N[C@@H](C)C(=O)N1CCC[C@H]1C(=O)N1CCC[C@H]1C(=O)N1CCC[C@H]1C(=O)N[C@@H](CO)C(N)=O)C(C)C [Example 117] (H-Y[Aib]EGTFISDYSI[αMeL]LDKIHQ[Aib]DFVEYK([AEEA-AEEA-γGlu-C20 diacid])LEAGPSSGAPPPS-NH2)	685 nM	> 5000 nM
